Test results as given in patent US20100256107A1, “PREPARATION COMPOSITION” (Dainippon Sumitomo Pharma Co., Ltd., priority 2007, published 2010).

Columns and labels:
[1] = Stability in an aqueous solution formulation containing sodium carbonate (HPLC); format: physicochemical
Protocol: Multiple vials were prepared, and Compound A and sodium carbonate in amounts indicated in Table 9 were weighed and put in each vial. A physiological saline (100 ml) was added to each vial, amounts Compound A and its degradation, Compounds B and C were measured just after dissolving and after preserving for 6 hours at 25° C.
HPLC was Measured Under the Same Conditions as Test Example 1.
The numbers described in columns of “just after dissolution” and “after preservation for 6 hours at 25° C.” on Table 10 show area % per total peaks which appear until 55 minutes under the above HPLC conditions.

[2] = Control of coloration in an aqueous solution formulation containing sodium bicarbonate (absorbance 380 nm); format: physicochemical; conditions: for change in absorbance, just after dissolution / change in absorbance, preservation time 1 hr / change in absorbance, preservation time 2 hr / change in absorbance, preservation time 3 hr / change in absorbance, preservation time 4 hr / change in absorbance, preservation time 5 hr / change in absorbance, preservation time 6 hr: 25° C., 380 nm
Protocol: Multiple vials were prepared, and Compound A, imipenem and sodium bicarbonate in amounts indicated in Table 11 were weighed, respectively and each mixture was put in each vial. A physiological saline (100 ml) was added to each vial to be dissolved. In addition, to a vial containing Tienam® for infusion (0.5 g potency/vial) was added a physiological saline (100 ml). Coloration (change of color) just after dissolution and when the solution was preserved at one hour intervals for 6 hours at 25° C. were measured by absorbency.
• Conditions of measurement by spectrophotometer; • cell: quartz 12.5 mm×12.5 mm×45 mm, capacity 3.5 ml • wavelength: 380 nm • measurement temperature: 25° C. • instrument: UV-2200A (Shimadzu)
The numbers described in columns of “just after dissolution” and each “preservation time” on Table 12 show values of change in absorbance just after dissolution when measured under the above conditions.

[3] = Comp. A 0.5 g/vial + sodium carbonate 0.0 mg/vial in physiological saline 100 ml
[4] = Comp. A 0.5 g/vial + sodium carbonate 1.0 mg/vial in physiological saline 100 ml
[5] = Comp. A 0.5 g/vial + sodium carbonate 1.5 mg/vial in physiological saline 100 ml
[6] = Comp. A 0.5 g/vial + sodium carbonate 2.0 mg/vial in physiological saline 100 ml
[7] = Comp. A 0.5 g/vial + sodium carbonate 2.5 mg/vial in physiological saline 100 ml
[8] = Comp. A 0.5 g/vial + sodium carbonate 3.0 mg/vial in physiological saline 100 ml
[9] = Comp. A 0.5 g/vial + sodium carbonate 3.5 mg/vial in physiological saline 100 ml
[10] = Comp. A 0.5 g/vial + sodium carbonate 4.0 mg/vial in physiological saline 100 ml
[11] = Comp. A 0.5 g/vial + sodium carbonate 5.0 mg/vial in physiological saline 100 ml
[12] = 0.5 g/vial + sodium bicarbonate 0.0 mg/vial in physiological saline 100 ml
[13] = 0.5 g/vial + sodium bicarbonate 1.0 mg/vial in physiological saline 100 ml
[14] = 0.5 g/vial + sodium bicarbonate 2.5 mg/vial in physiological saline 100 ml
[15] = 0.5 g/vial + sodium bicarbonate 5.0 mg/vial in physiological saline 100 ml
[16] = 0.5 g/vial + sodium bicarbonate 10 mg/vial in physiological saline 100 ml
[17] = 0.5 g/vial + sodium bicarbonate 20 mg/vial in physiological saline 100 ml
[18] = 0.5 g/vial + sodium bicarbonate 50 mg/vial in physiological saline 100 ml

For `C[C@H]1C=C(c2csc(SC3=C(C(=O)O)N4C(=O)[C@H]([C@@H](C)O)[C@H]4[C@H]3C)n2)CN1` [Compound A, (4R,5S,6S)-6-[(1R)-1-hydroxyethyl]-4-methyl-3-({4-[(5S)-5-methyl-2,5-dihydro-1H-pyrrol-3-yl]-1,3-thiazol-2-yl}sulfanyl)-7-oxo-1-azabicyclo[3.2.0]hept-2-ene-2-carboxylic acid], the “Comp. A after preservation for 6 hrs. 25° C.” value (“Comp. A after preservation” below) [1, 3] was 96.3 area %, the “Comp. A just after dissolution” value [1, 3] was 99.0 area % and the “Comp. B after preservation for 6 hrs. 25° C.” value (“Comp. B after preservation” below) [1, 3] was 2.6 area %. The “Comp. B just after dissolution” value [1, 3] was 0.5 area %, the “Comp. C after preservation for 6 hrs. 25° C.” value (“Comp. C after preservation” below) [1, 3] was 0.4 area % and the “Comp. C just after dissolution” value [1, 3] was 0.0 area %. For the same molecule, the “Comp. A after preservation” value [1, 4] was 96.7 area %, the “Comp. A just after dissolution” value [1, 4] was 99.0 area % and the “Comp. B after preservation” value [1, 4] was 2.6 area %. For the same molecule, the “Comp. B just after dissolution” value [1, 4] was 0.6 area %, the “Comp. C after preservation” value [1, 4] was 0.2 area % and the “Comp. C just after dissolution” value [1, 4] was 0.0 area %. The “Comp. A after preservation” value [1, 5] was 96.5 area %, the “Comp. A just after dissolution” value [1, 5] was 98.9 area % and the “Comp. B after preservation” value [1, 5] was 2.8 area %. For the same molecule, the “Comp. B just after dissolution” value [1, 5] was 0.5 area %, the “Comp. C after preservation” value [1, 5] was ≤ 0.1 area % and the “Comp. C just after dissolution” value [1, 5] was 0.0 area %. For the same molecule, the “Comp. C after preservation” value ([1]; Comp. A 0.5 g/vial + sodium carbonate 1.5 mg/vial in physiological saline 100 ml, listed as Comp. A) was 0.0 area %, the “Comp. A after preservation” value [1, 6] was 96.2 area % and the “Comp. A just after dissolution” value [1, 6] was 99.0 area %. For the same molecule, the “Comp. B after preservation” value [1, 6] was 3.0 area %, the “Comp. B just after dissolution” value [1, 6] was 0.5 area % and the “Comp. C after preservation” value [1, 6] was 0.0 area %. For the same molecule, the “Comp. C just after dissolution” value [1, 6] was 0.0 area %, the “Comp. A after preservation” value [1, 7] was 96.0 area % and the “Comp. A just after dissolution” value [1, 7] was 98.9 area %. For the same molecule, the “Comp. B after preservation” value [1, 7] was 3.2 area %, the “Comp. B just after dissolution” value [1, 7] was 0.5 area % and the “Comp. C after preservation” value [1, 7] was 0.0 area %. For the same molecule, the “Comp. C just after dissolution” value [1, 7] was 0.0 area %, the “Comp. A after preservation” value [1, 8] was 95.7 area % and the “Comp. A just after dissolution” value [1, 8] was 99.0 area %. For the same molecule, the “Comp. B after preservation” value [1, 8] was 3.6 area %, the “Comp. B just after dissolution” value [1, 8] was 0.5 area % and the “Comp. C after preservation” value [1, 8] was 0.0 area %. The “Comp. C just after dissolution” value [1, 8] was 0.0 area %, the “Comp. A after preservation” value [1, 9] was 95.4 area % and the “Comp. A just after dissolution” value [1, 9] was 98.9 area %. The “Comp. B after preservation” value [1, 9] was 3.8 area %, the “Comp. B just after dissolution” value [1, 9] was 0.5 area % and the “Comp. C after preservation” value [1, 9] was 0.0 area %. The “Comp. C just after dissolution” value [1, 9] was 0.0 area %, the “Comp. A after preservation” value [1, 10] was 95.1 area % and the “Comp. A just after dissolution” value [1, 10] was 99.0 area %. For the same molecule, the “Comp. B after preservation” value [1, 10] was 4.1 area %, the “Comp. B just after dissolution” value [1, 10] was 0.5 area % and the “Comp. C after preservation” value [1, 10] was 0.0 area %. For the same molecule, the “Comp. C just after dissolution” value [1, 10] was 0.0 area %, the “Comp. A after preservation” value [1, 11] was 94.8 area % and the “Comp. A just after dissolution” value [1, 11] was 98.9 area %. For the same molecule, the “Comp. B after preservation” value [1, 11] was 4.5 area %, the “Comp. B just after dissolution” value [1, 11] was 0.6 area % and the “Comp. C after preservation” value [1, 11] was 0.0 area %. For the same molecule, the “Comp. C just after dissolution” value [1, 11] was 0.0 area %, the “reduction of amount of Compound A” value ([1]; sodium carbonate increased to 5 mg from 2 mg per Compound A 500 mg, 6 hours at 25° C.) was 1.4% and the “change in absorbance, just after dissolution” value (“change in absorbance, just” for short) [2, 12] was 0.00 Abs. For the same molecule, the “change in absorbance, preservation time 1 hr” value [2, 12] was 0.01 Abs, the “change in absorbance, preservation time 2 hr” value [2, 12] was 0.03 Abs and the “change in absorbance, preservation time 3 hr” value [2, 12] was 0.05 Abs. For the same molecule, the “change in absorbance, preservation time 4 hr” value [2, 12] was 0.07 Abs, the “change in absorbance, preservation time 5 hr” value [2, 12] was 0.11 Abs and the “change in absorbance, preservation time 6 hr” value [2, 12] was 0.13 Abs. For the same molecule, the “change in absorbance, just” value [2, 13] was 0.00 Abs, the “change in absorbance, preservation time 1 hr” value [2, 13] was 0.00 Abs and the “change in absorbance, preservation time 2 hr” value [2, 13] was 0.01 Abs. The “change in absorbance, preservation time 3 hr” value [2, 13] was 0.02 Abs, the “change in absorbance, preservation time 4 hr” value [2, 13] was 0.04 Abs and the “change in absorbance, preservation time 5 hr” value [2, 13] was 0.06 Abs. For the same molecule, the “change in absorbance, preservation time 6 hr” value [2, 13] was 0.08 Abs, the “change in absorbance, just” value [2, 14] was 0.00 Abs and the “change in absorbance, preservation time 1 hr” value [2, 14] was 0.00 Abs. For the same molecule, the “change in absorbance, preservation time 2 hr” value [2, 14] was 0.00 Abs, the “change in absorbance, preservation time 3 hr” value [2, 14] was 0.00 Abs and the “change in absorbance, preservation time 4 hr” value [2, 14] was 0.00 Abs. The “change in absorbance, preservation time 5 hr” value [2, 14] was 0.01 Abs, the “change in absorbance, preservation time 6 hr” value [2, 14] was 0.01 Abs and the “change in absorbance, just” value [2, 15] was 0.00 Abs. For the same molecule, the “change in absorbance, preservation time 1 hr” value [2, 15] was 0.00 Abs, the “change in absorbance, preservation time 2 hr” value [2, 15] was 0.00 Abs and the “change in absorbance, preservation time 3 hr” value [2, 15] was 0.00 Abs. The “change in absorbance, preservation time 4 hr” value [2, 15] was 0.00 Abs, the “change in absorbance, preservation time 5 hr” value [2, 15] was 0.00 Abs and the “change in absorbance, preservation time 6 hr” value [2, 15] was 0.00 Abs. The “change in absorbance, just” value [2, 16] was 0.00 Abs, the “change in absorbance, preservation time 1 hr” value [2, 16] was 0.00 Abs and the “change in absorbance, preservation time 2 hr” value [2, 16] was 0.00 Abs. The “change in absorbance, preservation time 3 hr” value [2, 16] was 0.00 Abs, the “change in absorbance, preservation time 4 hr” value [2, 16] was 0.00 Abs and the “change in absorbance, preservation time 5 hr” value [2, 16] was 0.00 Abs. The “change in absorbance, preservation time 6 hr” value [2, 16] was 0.00 Abs, the “change in absorbance, just” value [2, 17] was 0.00 Abs and the “change in absorbance, preservation time 1 hr” value [2, 17] was 0.00 Abs. For the same molecule, the “change in absorbance, preservation time 2 hr” value [2, 17] was 0.00 Abs, the “change in absorbance, preservation time 3 hr” value [2, 17] was 0.00 Abs and the “change in absorbance, preservation time 4 hr” value [2, 17] was 0.00 Abs. The “change in absorbance, preservation time 5 hr” value [2, 17] was 0.00 Abs, the “change in absorbance, preservation time 6 hr” value [2, 17] was 0.00 Abs and the “change in absorbance, just” value [2, 18] was 0.00 Abs. The “change in absorbance, preservation time 1 hr” value [2, 18] was 0.00 Abs, the “change in absorbance, preservation time 2 hr” value [2, 18] was 0.00 Abs and the “change in absorbance, preservation time 3 hr” value [2, 18] was 0.00 Abs. The “change in absorbance, preservation time 4 hr” value [2, 18] was 0.00 Abs, the “change in absorbance, preservation time 5 hr” value [2, 18] was 0.00 Abs and the “change in absorbance, preservation time 6 hr” value [2, 18] was 0.00 Abs. The “suppression of coloration of the solution” value ([2]; at least 2.5 mg (0.005 part by weight) of sodium bicarbonate per 500 mg) was “observed” and the “coloration by the visual inspection compared with a solution just after dissolution” value ([2]; sodium bicarbonate 2.5 mg per 500 mg, physiological saline, 6 hours at 25° C.) was “coloration was not observed by the visual inspection”.
